Results as given in patent US9593084B2 (Parion Sciences, Inc., priority 2012, dated 2017).
Marks after values point to notes of the source that are not given here.

Columns and labels:
[1] = molecular target: T1, epithelial sodium channel (Canis lupus familiaris, UniProt A0A8I3MKE6+A0A8I3Q679+Q95165); assay: Inhibition of short-circuit current (ISC) in airway epithelial monolayers in Ussing chambers; assay type: cell-based, canine; details: canine bronchial epithelial cells, short-circuit current; read-out: Potency of Sodium Channel Blockade IC50
T1 construct: endogenous in cells; host or cells: primary canine bronchial epithelial cells cultured at air-liquid interface
T1 sequence (A0A8I3Q679 1-649): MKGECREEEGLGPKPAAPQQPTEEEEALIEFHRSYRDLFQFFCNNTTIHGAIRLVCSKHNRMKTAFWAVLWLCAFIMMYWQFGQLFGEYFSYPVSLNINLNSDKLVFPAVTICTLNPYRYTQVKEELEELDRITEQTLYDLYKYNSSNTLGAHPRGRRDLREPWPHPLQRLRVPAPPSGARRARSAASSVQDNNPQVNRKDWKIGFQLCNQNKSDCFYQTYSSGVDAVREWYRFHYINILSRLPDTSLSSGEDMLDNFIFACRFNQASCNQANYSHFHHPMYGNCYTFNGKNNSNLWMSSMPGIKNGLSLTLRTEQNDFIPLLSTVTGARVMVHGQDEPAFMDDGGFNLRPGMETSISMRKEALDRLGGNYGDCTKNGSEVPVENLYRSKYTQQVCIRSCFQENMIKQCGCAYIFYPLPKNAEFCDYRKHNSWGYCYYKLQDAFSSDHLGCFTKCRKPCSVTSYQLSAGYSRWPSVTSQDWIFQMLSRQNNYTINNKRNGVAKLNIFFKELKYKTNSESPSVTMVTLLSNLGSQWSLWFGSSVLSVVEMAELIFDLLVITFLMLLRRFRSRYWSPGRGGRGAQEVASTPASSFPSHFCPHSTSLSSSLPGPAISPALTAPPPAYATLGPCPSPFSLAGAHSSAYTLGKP
T1 sequence (Q95165 1-641): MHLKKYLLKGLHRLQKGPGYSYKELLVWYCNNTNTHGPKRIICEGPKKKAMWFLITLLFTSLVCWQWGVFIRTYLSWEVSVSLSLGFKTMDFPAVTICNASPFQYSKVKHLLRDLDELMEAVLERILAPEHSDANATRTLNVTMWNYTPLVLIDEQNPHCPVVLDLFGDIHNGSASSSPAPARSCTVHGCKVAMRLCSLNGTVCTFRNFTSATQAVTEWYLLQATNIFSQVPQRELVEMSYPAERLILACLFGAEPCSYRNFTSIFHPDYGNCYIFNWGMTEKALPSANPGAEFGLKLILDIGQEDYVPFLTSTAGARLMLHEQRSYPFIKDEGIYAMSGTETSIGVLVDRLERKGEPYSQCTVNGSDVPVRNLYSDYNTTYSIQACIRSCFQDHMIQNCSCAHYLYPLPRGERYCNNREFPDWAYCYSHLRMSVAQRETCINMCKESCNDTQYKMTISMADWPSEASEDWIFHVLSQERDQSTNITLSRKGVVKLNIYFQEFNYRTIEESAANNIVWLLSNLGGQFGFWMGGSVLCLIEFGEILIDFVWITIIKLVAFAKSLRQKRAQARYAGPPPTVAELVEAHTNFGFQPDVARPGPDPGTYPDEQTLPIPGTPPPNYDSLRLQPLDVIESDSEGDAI
T1 sequence (A0A8I3MKE6 1-646): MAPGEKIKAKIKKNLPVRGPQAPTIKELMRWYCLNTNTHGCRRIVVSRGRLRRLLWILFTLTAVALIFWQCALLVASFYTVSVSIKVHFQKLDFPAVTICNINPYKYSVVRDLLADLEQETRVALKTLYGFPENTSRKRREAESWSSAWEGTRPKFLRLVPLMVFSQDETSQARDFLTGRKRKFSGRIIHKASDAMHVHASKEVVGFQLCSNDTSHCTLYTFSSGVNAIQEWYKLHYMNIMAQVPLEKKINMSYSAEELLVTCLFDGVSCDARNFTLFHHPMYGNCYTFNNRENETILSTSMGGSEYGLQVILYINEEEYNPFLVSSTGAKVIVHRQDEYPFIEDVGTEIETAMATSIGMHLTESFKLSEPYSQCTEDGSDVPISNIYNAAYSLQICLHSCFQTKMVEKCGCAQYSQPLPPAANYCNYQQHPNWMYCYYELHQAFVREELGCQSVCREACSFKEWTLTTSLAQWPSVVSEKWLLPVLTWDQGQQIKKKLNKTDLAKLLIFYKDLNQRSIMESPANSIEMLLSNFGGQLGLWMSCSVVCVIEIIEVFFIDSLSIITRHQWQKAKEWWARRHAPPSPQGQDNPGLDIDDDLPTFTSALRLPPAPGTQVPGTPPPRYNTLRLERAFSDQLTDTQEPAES
Experimental: One assay used to assess mechanism of action and/or potency of the compounds of the present invention involves the determination of lumenal drug inhibition of airway epithelial sodium currents measured under short circuit current (ISC) using airway epithelial monolayers mounted in Using chambers. Cells obtained from freshly excised human, dog, sheep or rodent airways are seeded onto porous 0.4 micron Snapwelff Inserts (CoStar), cultured at air-liquid interface (ALI) conditions in hormonally defined media, and assayed for sodium transport activity (ISC) while bathed in Krebs Bicarbonate Ringer (KBR) in Using chambers. All test drug additions are to the lumenal bath with half-log dose addition protocols (from 1×10^−11 M to 3×10^−5 M), and the cumulative change in ISC (inhibition) recorded. All drugs are prepared in dimethyl sulfoxide as stock solutions at a concentration of 1×10^−2 M and stored at −20° C. […] After the maximal concentration ([…]) is administered, the lumenal bath is exchanged three times with fresh drug-free KBR solution, and the resultant ISC measured after each wash for approximately 5 minutes in duration. Reversibility is defined as the percent return to the baseline value for sodium current after the third wash. All data from the voltage clamps are collected via a computer interface and analyzed off-line.
Dose-effect relationships for all compounds are considered and analyzed by the Prism 3.0 program.

[2] = tested on: Sheep MCC; assay: Mucociliary clearance (MCC) studies in sheep; assay type: in vivo; details: sheep
Experimental: The animal model that has been used most often to measure changes in MCC is the sheep model. The effect of compounds for enhancing mucociliary clearance (MCC) can be measured using an in vivo model described by Sabater et al., Journal of Applied Physiology, 1999, pp. 2191-2196, incorporated herein by reference.
In these studies, adult sheep were restrained and nasally intubated with an endotracheal tube. Aerosolized test articles were administered over 10-15 minutes to sheep. Radiolabeled ^99mTc-sulfur colloid (TSC, 3.1 mg/mL; containing approximately 20 mCi) was then administered at a specified time four or eight hours after test article. The radiolabeled aerosol was administered through the endotracheal tube for about 5 minutes. The sheep were then extubated, and total radioactive counts in the lung were measured every 5 minutes for a 1-hour observation period. The rate of radiolabel clearance from the lung is representative of the MCC rate in the animal. The advantage of this system is that it closely simulates the human lung environment. The model also allows for the collection of simultaneous PK/PD information through plasma and urine sampling over the test period. There are also several techniques to measure the drug concentrations on the airway surface during the MCC measurements. These include the collection of exhaled breath condensates or a filter paper method to obtain ASL via bronchoscopy.
The ovine model described above was used to evaluate the in vivo effects (efficacy/durability) of aerosol-delivered test agent on MCC. Treatments consisting of either 4 mL of test agent or test agent in combination with HS were tested. To determine if combining HS with test agent enhanced MCC, HS was administered immediately following test agent administration. Test solutions were aerosolized using a Raindrop nebulizer at a flowrate of eight liters per minute and connected to a dosimetry system consisting of a solenoid valve and a source of compressed air (20 psi). The deposited dose of drug in sheep lungs after an aerosol administration using the Raindrop nebulizer is estimated to be 8-15% of the dose. Using a Raindrop nebulizer, radiolabeled TSC was administered over approximately 3 minutes either 4 or 8 hours after drug treatment to evaluate efficacy/durability. Radioactive counts were measured in a central region in the right lung at 5 min intervals for one hour with a gamma camera. Three methods of analysis were utilized, 1) initial rate of clearance (slope) over the first 30 min fitted using linear regression 2) area under the curve for % clearance over time over one hour, and 3) the maximum clearance obtained in one hour.

[3] = aerosol, 0.24 nmol/kg (3 μM), MCC at 8 h post-dose

| SMILES | IC50 [1] [µM] | further results |
| --- | --- | --- |
| N=C(NCCCCc1ccc(C[C@H](N)C(=O)O)c2ccccc12)NC(=O)c1nc(Cl)c(N)nc1N [Compound 16, (S)-2-amino-3-(4-(4-(3-(3,5-diamino-6-chloropyrazine-2-carbonyl)guanidino)butyl)naphthalen-1-yl)propanoic acid] | 0.0796 | – |
| CN(C)CCCc1ccc(NC(=O)[C@@H](N)Cc2ccc(CCCCNC(=N)NC(=O)c3nc(Cl)c(N)nc3N)c3c2CCCC3)cc1 [Compound 135, (S)-3,5-diamino-N—(N-(4-(4-(2-amino-3-(4-(3-(dimethylamino)propyl)phenylamino)-3-oxopropyl)-5,6,7,8-tetrahydronaphthalen-1-yl)butyl)carbamimidoyl)-6-chloropyrazine-2-carboxamide] | 0.0052 | – |
| N=C(NCCCCc1ccc(C[C@H](N)C(=O)O)c2c1CCCC2)NC(=O)c1nc(Cl)c(N)nc1N [Compound 139, (S)-2-amino-3-(4-(4-(3-(3,5-diamino-6-chloropyrazine-2-carbonyl)guanidino)butyl)-5,6,7,8-tetrahydronaphthalen-1-yl)propanoic acid] | 0.0737 | – |
| N=C(NCCCCc1ccc(C[C@@H](N)C(=O)Nc2ccc(CCCN(C[C@H](O)[C@@H](O)[C@H](O)[C@H](O)CO)C[C@H](O)[C@@H](O)[C@H](O)[C@H](O)CO)cc2)c2ccccc12)NC(=O)c1nc(Cl)c(N)nc1N [Compound 152, 3,5-diamino-N—(N-(4-(4-((R)-2-amino-3-(4-(3-(bis((2S,3R,4R,5R)-2,3,4,5,6-pentahydroxyhexyl)amino)propyl)phenylamino)-3-oxopropyl)naphthalen-1-yl)butyl)carbamimidoyl)-6-chloropyrazine-2-carboxamide] | – | duration of action on MCC vs. vehicle ([2]; 8 hours post dose): enhanced duration action of MCC vs. vehicle; AUC (% Cl-h) [2, 3]: 17.4* (4) % Cl-h; Initial Slope (8.0-8.5 h) [2, 3]: 37.5* (4) |

Now from value to compound, other results behind:

| IC50 [1] [µM] | SMILES | further results |
| --- | --- | --- |
| 0.0254 | N=C(NCCCCc1ccc(C[C@H](N)C(=O)Nc2ccc(CCCNC[C@H](O)[C@@H](O)[C@H](O)[C@H](O)CO)cc2)c2ccccc12)NC(=O)c1nc(Cl)c(N)nc1N [Compound 38, 3,5-diamino-N—(N-(4-(4-((S)-2-amino-3-oxo-3-(4-(3-((2S,3R,4R,5R)-2,3,4,5,6-pentahydroxyhexylamino)propyl)phenylamino)propyl)naphthalen-1-yl)butyl)carbamimidoyl)-6-chloropyrazine-2-carboxamide] | – |
| 0.0086 | N=C(NCCCCc1ccc(C[C@H](N)C(=O)Nc2ccc(CCCN(C[C@H](O)[C@@H](O)[C@H](O)[C@H](O)CO)C[C@H](O)[C@@H](O)[C@H](O)[C@H](O)CO)cc2)c2c1CCCC2)NC(=O)c1nc(Cl)c(N)nc1N [Compound 127, 3,5-diamino-N—(N-(4-(4-((S)-2-amino-3-(4-(3-(bis((2S,3R,4R,5R)-2,3,4,5,6-pentahydroxyhexyl)amino)propyl)phenylamino)-3-oxopropyl)-5,6,7,8-tetrahydronaphthalen-1-yl)butyl)carbamimidoyl)-6-chloropyrazine-2-carboxamide] | – |
| 0.0212 | N=C(NCCCCc1ccc2cc(C[C@H](N)C(=O)Nc3ccc(CCCN(C[C@H](O)[C@@H](O)[C@H](O)[C@H](O)CO)C[C@H](O)[C@@H](O)[C@H](O)[C@H](O)CO)cc3)ccc2c1)NC(=O)c1nc(Cl)c(N)nc1N [Compound 94, 3,5-diamino-N—(N-(4-(6-((S)-2-amino-3-(4-(3-(bis((2S,3R,4R,5R)-2,3,4,5,6-pentahydroxyhexyl)amino)propyl)phenylamino)-3-oxopropyl)naphthalen-2-yl)butyl)carbamimidoyl)-6-chloropyrazine-2-carboxamide] | – |
| 0.0074 | CCCCCCN(CCCc1ccc(NC(=O)[C@@H](N)Cc2ccc(CCCCNC(=N)NC(=O)c3nc(Cl)c(N)nc3N)c3ccccc23)cc1)C[C@H](O)[C@@H](O)[C@H](O)[C@H](O)CO [Compound 28, 3,5-diamino-N—(N-(4-(4-((S)-2-amino-3-(4-(3-(hexyl((2S,3R,4R,5R)-2,3,4,5,6-pentahydroxyhexyl)amino)propyl)phenylamino)-3-oxopropyl)naphthalen-1-yl)butyl)carbamimidoyl)-6-chloropyrazine-2-carboxamide] | – |
| 0.0501 | CN(C)CCCCCCc1ccc(NC(=O)[C@@H](N)Cc2ccc(CCCCNC(=N)NC(=O)c3nc(Cl)c(N)nc3N)c3ccccc23)cc1 [Compound 43, (S)-3,5-diamino-N—(N-(4-(4-(2-amino-3-(4-(6-(dimethylamino)hexyl)phenylamino)-3-oxopropyl)naphthalen-1-yl)butyl)carbamimidoyl)-6-chloropyrazine-2-carboxamide] | – |
